In US7071163B2, “Compounds for targeting hepatocytes in vivo” (Mirus Bio Corporation, priority 2002, dated 2006):
Peptide text beside a SMILES is read from it. * marks the point of attachment. Biotin = O=C1N[C@H]2[C@H](CS[C@H]2CCCCC(=O)*)N1; PEG4 = NCCOCCOCCOCCOCCC(=O)O

Columns and labels:
hepatocytes [1] = assay: Delivery of Cy3-streptavidin by biotinylated synthetic p17 peptide, monkey; type: in vivo, Cyno monkey; details: b107 says ratio 18:1, method b106 13:1, 10 min
Method: A. Delivery of streptavidin (SA) by a biotinylated p17 peptide (MC893). […] Purified peptide was mixed with 250 μg of Cy3-labled SA (Jackson ImmunoResearch Laboratories, Inc. West Grove, Pa.) at peptide to SA molar ratios of 1.2:1, 9:1, 18:1, 45: 1, and 90:1 in a solution containing 25 mM HEPES, 125 mM NaCl, pH 8. The mixtures were injected into mice via the tail vein (400 μl injection volume). For monkey injection, 3.3 mg MC893 peptide was mixed with 3 mg of Cy3-SA, a 13:1 molar ratio, and purified using a G50 column. The sample was recovered in 12 ml 25 mM HEPES, 125 mM NaCl, pH 8 and slowly injected into a Cyno monkey via a subcutaneous vein in the arm. All animals were sacrificed 10 min after injection and liver samples were excised and frozen tissue sections prepared and placed onto microscopic slides. Air dried tissue sections were fixed and counterstained with Alexa 488 phalloidin and To-Pro-3 as previously described and analyzed by confocal microcopy.

hepatocytes [2] = assay: Delivery of Cy3-streptavidin by biotinylated synthetic p17 peptide, mouse; details: peptide to SA molar ratio of 18:1, 10 min
Method: Purified peptide was mixed with 250 μg of Cy3-labled SA (Jackson ImmunoResearch Laboratories, Inc. West Grove, Pa.) at peptide to SA molar ratios of 1.2:1, 9:1, 18:1, 45: 1, and 90:1 in a solution containing 25 mM HEPES, 125 mM NaCl, pH 8. The mixtures were injected into mice via the tail vein (400 μl injection volume). […] All animals were sacrificed 10 min after injection and liver samples were excised and frozen tissue sections prepared and placed onto microscopic slides. Air dried tissue sections were fixed and counterstained with Alexa 488 phalloidin and To-Pro-3 as previously described and analyzed by confocal microcopy.
The ability of biotin-peptide conjugates to target Cy3-labeled streptavidin to hepatocytes in mice is determined by confocal fluorescent microscopy as described above.

mouse hepatocytes = assay: Delivery of biotinylated Cy3-dextran and Cy3-siRNA by MC892-SA conjugate; type: in vivo
Method: B. Delivery of biotinylated cargo by SA-p17 peptide conjugates. […] 2 mg SA was dissolved in 200 μl dH2O and added to a 200 μl 100 mM sodium phosphate/300 mM NaCl/2 mM EDTA, pH 7.2. A 10 mole equivalent of SPDP (Pierce) dissolved in DMF at 10 mg/ml was then added to the SA solution and mixed at RT for 1 h. The SPDP-modified streptavidin was then purified using a G-25 Sephadex column. It was determined that each SA molecule contained an average of 1.8 PDP groups based on a pyridine-2-thione assay. The SA-PDP conjugate was added to MC892 at a 1:18 molar ratio and incubated for 24 h at 4° C. The MC892-SA conjugates were purified on a G-25 Sephadex column. The sample was then freeze-dried and dissolved in a solution of 25 mM MES, 125 mM NaCl, pH 6.5 at 3 mg/ml.
One mg of NHS-PEG4-Biotin suspended in dry DMF at 10 mg/ml was added to 30 mg amino dextran (Molecular Probes, 70 kDa, 17.9 mole amine per polymer) that was dissolved in 0.1 M NaHCO3 at 10 mg/ml (molar ratio of 4.5 to 1). This solution was mixed overnight at room temperature, transferred into cellulose tubing (Fisher, 12–14,000 MWCO) and dialyzed once against 20 L 20 mM NH4Cl followed twice against 5 L dH20. The dialyzed sample was lyophilized. The sample was then dissolved in dH2O at 30 mg/ml. Each dextran polymer was estimated to contain an average of 0.5 biotin group. This biotinylated dextran was fluorescently labeled with Cy3-OSu (Amersham) at a weight ratio of 1:0.074. Excess free dye was removed using a Sephadex G-50 column. Labeled dextran was eluted in 25 mM NH4CO3. The sample was freeze dried and resuspended at 7.5 mg/ml in 25 mM HEPES/125 mM NaCl, pH 8.0. Biotinylated siRNA (5′-biotin-LC-siRNA, Dharmacon) was labeled with Cy3 using Cy3 LabelIT (Mirus Corp) according to manufacturer's instructions. […]
Liver samples were removed 10 min after injection, placed into OCT freezing medium and snap frozen in liquid nitrogen. […] Processed slides were mounted in Vectorshield (Vector Laboratories, Burlingame, Calif.) and analyzed using a Zeiss LSM510 confocal microscope.

monkey hepatocytes = assay: Targeting of recombinant p17 proteins to monkey hepatocytes; type: in vivo; details: 500 μg via subcutaneous vein in arm, 1 h
Method: 6. Targeting of recombinant p17 proteins to monkey hepatocytes. Recombinant full-length p17 proteins were prepared as previously described. Purified p17 proteins, 500 μg of p17-K211 or p17-E211 in 33 ml of PBS, were slowly injected into monkeys via subcutaneous vein in arm. Liver samples were excised 1 h after injection, submerged in O.C.T. freezing medium and snap frozen in liquid nitrogen. Frozen liver sections (5–7 μm) were prepared using a cryostat and air-dried. Immunofluorescence detection for p17 proteins was performed as described above. Liver sections from an uninjected monkey were used as a control. Images represent an area of 75 μm^2 from a flattened composite of 8 consecutive confocal optical sections (each 0.4 μm thick). P17 is seen in black, cell nuclei in gray, F-actin in gray near basolateral membranes and in near bile capillary membranes.

C[C@H](NC(=O)[C@H](CCC(=O)O)NC(=O)[C@H](CC(=O)O)NC(=O)[C@H](CCCNC(=N)N)NC(=O)[C@H](Cc1ccccc1)NC(=O)CNC(=O)[C@H](CCCCN)NC(=O)[C@@H](NC(=O)[C@H](CCC(=O)O)NC(=O)[C@H](CC(=O)O)NC(=O)[C@H](CCCNC(=N)N)NC(=O)[C@H](Cc1c[nH]c2ccccc12)NC(=O)[C@H](CCC(N)=O)NC(=O)[C@H](CCCCN)NC(=O)[C@@H](NC(=O)[C@H](CC(N)=O)NC(=O)[C@@H](NC(=O)[C@H](C)NC(=O)[C@H](CC(N)=O)NC(=O)[C@@H](NC(=O)[C@H](CO)NC(=O)[C@H](CO)NC(=O)[C@H](CCC(=O)O)NC(=O)[C@H](CC(N)=O)NC(=O)[C@H](CCCCN)NC(=O)CCOCCOCCOCCOCCNC(=O)CCOCCOCCOCCOCCNC(=O)CCCC[C@@H]1SC[C@@H]2NC(=O)N[C@@H]21)[C@@H](C)O)[C@@H](C)O)[C@@H](C)O)[C@@H](C)O)C(=O)N[C@@H](CCCCN)C(=O)N[C@@H](CCCNC(=N)N)C(=O)N[C@@H](Cc1ccccc1)C(=O)N[C@@H](CCCCN)C(=O)N[C@@H](CC(N)=O)C(=O)N[C@H](C(=O)N[C@@H](C)C(=O)NCC(=O)O)[C@@H](C)O [MC893] ({Biotin-PEG4-PEG4}-KNESSTNATNTKQWRDETKGFRDEAKRFKNTAG-OH)
targeting of Cy3-SA to hepatocytes (hepatocytes [1]): efficiently targeted Cy3-SA to hepatocytes | targeting of Cy3-SA to hepatocytes (hepatocytes [2]): efficiently targeted Cy3-SA to hepatocytes

Cys-PEG4-Lys-Asn-Glu-Ser-Ser-Thr-Asn-Ala-Thr-Asn-Thr-Lys-Gln-Trp-Arg-Asp-Glu-Thr-Lys-Gly-Phe-Arg-Asp-Glu-Ala-Lys211-Arg-Phe-Lys-Asn-Thr-Ala-Gly [MC892]
Cy3-dextran signal in hepatocytes (mouse hepatocytes; MC892-SA with biotinylated Cy3-dextran, 20 min (not shown)): internalized Cy3-dextran signals found in clusters near cell nuclei | Cy3-dextran signal in hepatocytes (mouse hepatocytes; MC892-SA with biotinylated Cy3-labeled 70 kDa dextran, 10 min after injection): high levels of Cy3-dextran signal was observed inside hepatocytes | targeting of Cy3-siRNA to liver (mouse hepatocytes; MC892-SA with biotinylated Cy3-siRNA, 10 min): successful targeting of siRNA to the liver

B1: p17-K211: bacterially expressed His-tagged full-length wild-type T7 p17 tail fiber protein (SEQ ID 4) (protein)
chain: MGSSHHHHHHSSGLVPRGSHMANVIKTVLTYQLDGSNRDFNIPFEYLARKFVVVTLIGVDRKVLTINTDYRFATRTTISLTKAWGPADGYTTIELRRVTSTTDRLVDFTDGSILRAYDLNVAQIQTMHVAEEARDLTTDTIGVNNDGHLDARGRRIVNLANAVDDRDAVPFGQLKTMNQNSWQARNEALQFRNEAETFRNQAEGFKNESSTNATNTKQWRDETKGFRDEAKRFKNTAGQYATSAGNSASAAHQSEVNAENSATASANSAHLAEQQADRAEREADKLENYNGLAGAIDKVDGTNVYWKGNIHANGRLYMTTNGFDCGQYQQFFGGVTNRYSVMEWGDENGWLMYVQRREWTTAIGGNIQLVVNGQIITQGGAMTGQLKLQNGHVLQLESASDKAHYILSKDGNRNNWYIGRGSDNNNDCTFHSYVHGTTLTLKQDYAVVNKHFHVGQAVVATDGNIQGTKWGGKWLDAYLRDSFVAKSKAWTQVWSGSAGGGVSVTVSQDLRFRNIWIKCANNSWNFFRTGPDGIYFIASDGGWLRFQIHSNGLGFKNIADSRSVPNAIMVENE
modifications: His tag; Bacteriophage T7
liver localization of p17 protein in monkey (monkey hepatocytes): efficiently targets to monkey hepatocytes
